Counter-ions that a name gives are not always drawn.
Tests used:
arrhythmias = assay: Antiarrhythmic action, aconitine infusion, rat, oral administration; type: in vivo, Sprague-Dawley rats; details: for ED50: Rattus norvegicus, po, read-out: ED 50% (dose which prolongs the aconitine infusion duration by 50%)
Experimental: (§1) The substances were administered orally to Sprague-Dawley rats weighing 200-250 g. 45 minutes thereafter, the animals were anesthetized with 100 mg/kg of thiobutabarbital Na, administered intraperitoneally. Aconitine, as an arrhythmogenic substance, was infused intravenously into the jugular vein 60 minutes after administration of the substance (dosage rate: 0.005 mg per kg per min). In the case of untreated animals (N=52), arrhythmias appeared in the ECG after 2.74±0.07 minutes, the appearance of these arrhythmias being delayed by antiarrhythmic agents in a dose-dependent manner.
(§2) The dose which prolongs the duration of aconitine infusion by 50%, ie. the ED 50%, was determined from the linear relationship between log dose (mg/kg) of the test substances and the relative prolongation of aconitine infusion duration (Δ%).

[1] = Acute toxicity: dose at which first toxic symptoms (change in initial ECG, cyanosis or cramp) occur, rat, oral; type: in vivo, Sprague-Dawley rats; details: Table 2, oral administration, geometric progression of doses (factor 2.154)
Experimental: as §1
(§3) Furthermore, the dose at which toxic symptoms (change in the initial ECG, cyanosis or cramp) occur was determined from the geometric progression of doses (factor 2.154) used in the experiments.

[2] = Therapeutic index: quotient of acute toxic dose to antiarrhythmic ED 50%; design: species or system Sprague-Dawley rats; details: in vivo; Table 2; rat, oral administration; measure of therapeutic index; read-out: Q (quotient of acute toxic dose to antiarrhythmic ED 50%)
Experimental: as §1, §2, §3
The quotient of acute toxic dose to antiarrhythmic ED 50% was determined as a measure of the therapeutic index of the novel compounds.

Row | SMILES | ED50 (arrhythmias) [mg/kg] | Toxic dose (dose at which the first toxic symptoms are observed) [1] [mg/kg] | selectivity ratio [2] | ED 50% (dose which prolongs the aconitine infusion duration by 50%) (arrhythmias; Table 2, rat, oral administration, 60 minutes before aconitine i.v. infusion 0.005 mg per kg per min) [mg/kg]
1 | CC(O)(CC1c2ccccc2CCc2ccccc21)CN1CCC(O)(c2ccccc2)CC1 (stereo not shown) [Example 9] | 2.57 | – | – | –
2 | COCC(C)NCC(C)(O)CC1c2ccccc2CCc2ccccc21 (stereo not shown) [Example 6] | 6.83 | – | – | –
3 | CC(C)NCC(C)(O)CC1c2ccccc2CCc2ccccc21 (stereo not shown) [Example 1, N-[2-hydroxy-2-methyl-3-(10,11-dihydro-5H-dibenzocycloheptadienyl)-propyl]-N-isopropylamine hydrochloride] | 6.51 | – | – | –
4 | CC(O)(CNC(C)(C)C)CC1c2ccccc2CCc2ccccc21 (stereo not shown) [Example 4] | 6.47 | 215 | 33 | –
5 | CNCC(C)(O)CC1c2ccccc2CCc2ccccc21 (stereo not shown) [Example 3] | 3.11 | 100 | 32 | –
6 | CCCNCC(C)(O)CC1c2ccccc2CCc2ccccc21 (stereo not shown) [Example 5] | 7.78 | – | – | –
7 | C=C[C@H]1C[N@@]2CC[C@H]1C[C@@H]2[C@@H](O)c1ccnc2ccc(OC)cc12 [Quinidine, quinidine, reference compound] | – | 464 | 11 | 43.5
